Tested on: SARS-CoV-2-PP (614G, Delta, UK, Brazil variants) infecting ACE2 expression cells
Assay type: cell-based

Structure (SMILES)	inhibition of SARS-CoV-2-PP infection	difference of effect between variants	effect on variants when combined with Oleic acid or Linoleic acid
CC1=CC(=O)C(C(C)C)=CC1=O [thymoquinone]	good inhibitor	–	–
CCCCCCCCCCCCCCCC(=O)O [palmitic acid]	good inhibitor	a difference between the Brazil variant and the other variants	strongest inhibition on the Delta variant
